{"source": "patent US20090203701A1", "about": "“PROPHYLACTIC AND/OR THERAPEUTIC AGENT FOR RHEUMATOID ARTHRITIS” (KOWA CO., LTD, priority 2006, published 2009)", "system": "rat collagen-induced arthritis model", "experiment": "Edema suppression in both hindlimbs, rat collagen-induced arthritis model", "format": "in vivo", "parameters": "key to Edema Index: sum of both hindlimb edema volumes on days 14, 18, 22, 26", "conditions": "for Relative index: control group = 1.000; for Edema Index: average ± standard error", "experimental": "For the cases of combined administration and respective single drug administrations of 2-benzyl-5-(4-chlorophenyl)-6-[4-(methylthio)phenyl]-2H-pyridazin-3-one and atorvastatin calcium hydrate, the effect of edema suppression in both hindlimbs was determined by the following method (rat collagen-induced arthritis model) (FDA, CBER, CDER, CDRH: Guidance for industry—Clinical development programs for drugs, devices, and biological products for the treatment of rheumatoid arthritis (RA)—.(1999)).\nFor the test animal, female Lewis rats (LEW/Crj) (obtained from Charles River Laboratories Japan, Inc.) were used.\nFor each 8-week-old LEW/Crj rat, the volume of a portion from the ankle to the toe tip of both hindlimbs (hereinafter, both hindlimbs volume) was measured by means of a plethysmometer for small animals (TK-101CMP, product of Unicom), and the total volume was taken as the both hindlimbs volume upon initiation of test (hereinafter, Pre value). This Pre value was used as an index to divide the rats into groups by randomized block design by the single variable, so that the values in the respective groups averaged out.\nThe collagen emulsion for sensitization that was used to induce arthritis in rats, was prepared by homogenizing a 0.3% Type II collagen solution (Collagen Research Center), Adjuvant Peptide (Peptide Institute, Inc.) and Adjuvant Incomplete Freund (DIFCO), using a Handy Micro Homogenizer (Microtec Nition, Co., Ltd.) under ice-cooling. The collagen emulsion thus prepared was intracutaneously administered at 10 sites in the back of each rat at a dose of 0.1 mL/site, to perform initial sensitization of the rat. Seven days after the initial sensitization, 0.12 mL of the same collagen emulsion was intracutaneously administered to the root of tail in each rat, to perform booster sensitization.\nDrug administration was conducted from the day after the initial sensitization through 26 days thereafter. The group for sole administration of 2-benzyl-5-(4-chlorophenyl)-6-[4-(methylthio)phenyl]-2H-pyridazin-3-one (Drug A) was orally administered with the drug at 3 mg/kg, twice a day, in the morning (9:00 to 11:00) and in the evening (15:30 to 17:30). The group for sole administration of atorvastatin calcium hydrate (Drug B1) was orally administered with the drug at 30 or 100 mg/kg, once a day, in the afternoon (11:30 to 13:30). On the other hand, the group for combined administration of Drug A and Drug B1 was orally administered with Drug A at 3 mg/kg in the morning (9:00 to 11:00) and in the evening (15:30 to 17:30), and with Drug B1 at 30 or 100 mg/kg in the afternoon (11:30 to 13:30).\n14, 18, 22 and 26 days after the initial sensitization, the both hindlimbs volume was measured again for each rat, and the difference between each of the values and the Pre value was determined to calculate the edema volume for both hindlimbs. The sum of the edema volumes for both hindlimbs measured 14, 18, 22 and 26 days after the initial sensitization was calculated as Edema Index, and this was taken as an index for the effects of the drugs.\nTable 1 and FIG. 1 present the Edema Indices of the group for sole administration of 3 mg/kg of Drug A, the group for sole administration of 30 mg/kg of Drug B1, and the group for combined administration of both drugs. Furthermore, Table 2 and FIG. 2 present the Edema Indices of the group for sole administration of 3 mg/kg of Drug A, the group for sole administration of 100 mg/kg of Drug B1, and the group for combined administration of both drugs. The Edema Index is expressed in the average value±standard error of 8 rats in each group. Furthermore, the decrease rate is indicated as ((X−Y)/X)×100 (X: average Edema Index for control group, Y: average Edema Index for each group)"}
{"smiles": "CSc1ccc(-c2nn(Cc3ccccc3)c(=O)cc2-c2ccc(Cl)cc2)cc1", "note": "[Drug A, 2-benzyl-5-(4-chlorophenyl)-6-[4-(methylthio)phenyl]-2H-pyridazin-3-one]", "values": [{"measurement": "Relative index", "setting": "Table 1 experiment, sole Drug A 3 mg/kg orally twice a day", "value": 0.935}, {"measurement": "Decrease rate (%)", "setting": "Table 1 experiment, sole Drug A 3 mg/kg orally twice a day, vs control group Edema Index", "value": 6.5, "unit": "%"}, {"measurement": "Edema Index", "setting": "Table 1 experiment, sole administration of Drug A 3 mg/kg orally twice a day, day 1-26 after initial sensitization, sum of edema volumes on days 14, 18, 22, 26", "value": "5.23 ± 0.45"}, {"measurement": "Relative index", "setting": "Table 2 experiment, sole Drug A 3 mg/kg orally twice a day", "value": 0.790}, {"measurement": "Decrease rate (%)", "setting": "Table 2 experiment, sole Drug A 3 mg/kg orally twice a day, vs control group", "value": 21.0, "unit": "%"}, {"measurement": "Edema Index", "setting": "Table 2 experiment, sole administration of Drug A 3 mg/kg orally twice a day, day 1-26", "value": "4.89 ± 0.57"}]}
{"smiles": "CC(C)c1c(C(=O)Nc2ccccc2)c(-c2ccccc2)c(-c2ccc(F)cc2)n1CC[C@@H](O)C[C@@H](O)CC(=O)O", "note": "[Drug B1, atorvastatin calcium hydrate]", "values": [{"measurement": "Relative index", "setting": "Table 1 experiment, sole Drug B1 30 mg/kg orally once a day", "value": 1.086}, {"measurement": "Decrease rate (%)", "setting": "Table 1 experiment, sole Drug B1 30 mg/kg orally once a day, vs control group", "value": "−8.6", "unit": "%"}, {"measurement": "Edema Index", "setting": "Table 1 experiment, sole administration of Drug B1 30 mg/kg orally once a day, day 1-26", "value": "6.07 ± 0.30"}, {"measurement": "Relative index", "setting": "Table 2 experiment, sole Drug B1 100 mg/kg orally once a day", "value": 1.060}, {"measurement": "Decrease rate (%)", "setting": "Table 2 experiment, sole Drug B1 100 mg/kg orally once a day, vs control group", "value": "−6.0", "unit": "%"}, {"measurement": "Edema Index", "setting": "Table 2 experiment, sole administration of Drug B1 100 mg/kg orally once a day, day 1-26", "value": "6.57 ± 0.31"}, {"measurement": "Effects on edema (Edema Index), in words", "setting": "sole Drug B1 at the doses of 30 and 100 mg/kg", "value": "did not show any effects on edema"}]}
